Where a SMILES comes first, the peptide text is derived from it. Bridges are numbered along the chain shown (N, C = ends).
What was measured:
[1] = target: T1, V1aR (V1a receptor) (Homo sapiens, UniProt P37288); assay: HTRF-IP1 accumulation assay, antagonist assessment; format: cell-based; conditions: against EC70 concentration of vasopressin
T1 construct: expressed in transfected cells; host or cells: HEK293

[2] = target: T2, OXTR (OT receptor) (Homo sapiens, UniProt P30559); assay: cell-based; conditions: for Emax: read-out: Emax (% OXT)
T2 sequence (P30559 1-389): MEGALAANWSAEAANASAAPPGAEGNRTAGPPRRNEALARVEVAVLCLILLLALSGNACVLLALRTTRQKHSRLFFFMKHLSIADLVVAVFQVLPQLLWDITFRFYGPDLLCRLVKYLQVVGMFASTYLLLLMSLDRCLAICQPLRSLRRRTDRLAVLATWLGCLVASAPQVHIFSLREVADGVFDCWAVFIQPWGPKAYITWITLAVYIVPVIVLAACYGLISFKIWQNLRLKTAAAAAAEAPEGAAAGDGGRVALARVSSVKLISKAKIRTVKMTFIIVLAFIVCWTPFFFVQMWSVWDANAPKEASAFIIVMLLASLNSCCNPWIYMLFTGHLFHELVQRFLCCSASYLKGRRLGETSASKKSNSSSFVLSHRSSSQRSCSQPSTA

[3] = target: T1, V1aR (V1a receptor); assay: HTRF-IP1 accumulation assay, agonist assessment; format: cell-based; conditions: for EC50: V1a receptor-expressing HEK293 cells, IP1 accumulation, 1 h incubation
Procedure: HTRF-IP1 Accumulation Assay Experimental Procedures
OT or V1a receptor-expressing HEK293 cells were seeded onto clear, poly-L-lysine (100 μg/mL)-coated 384 well plates at a density of 8.75×10^3 cells per well. Levels of receptor activation induced by compounds were assessed at concentrations ranging from 1 nM to 100 μM using the HTRF IP-One kit (CisBio International, Bagnolssur-Cze, France), according to manufacturers protocol. For agonist assessment, cells were incubated with compounds for 1 h prior to the addition of Ab-Cryptate and IP1-d2. The ligand concentration that induced a 50% maximal response (EC50) was used to evaluate functional effects across compounds. […] Cells were then incubated for a further 1 h, and Ab-Cryptate and IP1-d2 added.

[4] = target: T2, OXTR (OT receptor); assay: HTRF-IP1 accumulation assay, antagonist assessment; format: cell-based; set-up: expressed in transfected cells; host or cells: HEK293
[5] = target: T2, OXTR (OT receptor); assay: Competition radioligand binding assay, [3H]-oxytocin displacement; set-up: expressed in transfected cells; host or cells: HEK293; conditions: membranes from OT receptor-expressing HEK293 cells, [3H]-oxytocin 10 nM
Procedure: (§1) Competition Radioligand Binding Assay Experimental Procedures
(§2) Reactions were incubated for 90 min at 4 C to reach equilibrium, and terminated by rapid filtration over glass fibre filters (Whatman GF/A […]), and washing with ice-cold reaction buffer. Radioactivity was detected after soaking filters in Microscint 0 using a Microbeta2 2450 microplate-reader (Perkin Elmer).

[6] = tested on: OXTR or V1aR receptors; assay: Activity/selectivity at OXTR or V1aR receptors stated in words; conditions: OXTR over V1aR
[7] = target: T1, V1aR (V1a receptor); assay: Competition radioligand binding assay, [3H]-vasopressin displacement; conditions: membranes from V1a receptor-expressing HEK293 cells, [3H]-vasopressin 2 nM
Procedure: as §1, §2

T1 sequence (P37288 whole entry, species assumed): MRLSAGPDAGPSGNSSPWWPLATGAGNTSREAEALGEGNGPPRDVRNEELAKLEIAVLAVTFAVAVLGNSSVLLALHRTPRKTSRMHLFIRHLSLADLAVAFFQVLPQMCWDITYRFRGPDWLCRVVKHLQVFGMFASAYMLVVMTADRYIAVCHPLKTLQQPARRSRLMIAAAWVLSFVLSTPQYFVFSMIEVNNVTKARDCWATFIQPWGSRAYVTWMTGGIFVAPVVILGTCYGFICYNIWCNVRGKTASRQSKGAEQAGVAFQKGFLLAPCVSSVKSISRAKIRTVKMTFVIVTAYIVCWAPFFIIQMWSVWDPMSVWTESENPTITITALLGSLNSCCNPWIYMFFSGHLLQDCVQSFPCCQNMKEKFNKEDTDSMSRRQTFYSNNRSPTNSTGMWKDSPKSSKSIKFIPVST

`CC[C@H](C)[C@@H]1NC(=O)[C@H](Cc2ccc(O)cc2)NC(=O)[C@@H](N)CSSC[C@@H](C(=O)N2CCC[C@H]2C(=O)N[C@@H](CC(C)C)C(N)=O)NC(=O)[C@H](CC(N)=O)NC(=O)[C@H](CCC(N)=O)NC1=O` [Metabolite A] (H-CYIQNCPL-NH2; disulfide 1-6) showed an IC50 [1] greater than 10000 nM, an EC50 [2] of 274 nM and an Emax [2] of 79.2%. For the same compound, the EC50 [3] was greater than 10000 nM, the IC50 [4] was greater than 10000 nM and the Ki [5] was 138 nM. The “selectivity and activity compared with oxytocin” value [6] was “enhanced selectivity and activity” and the Ki [7] was 749 nM.
`CC[C@H](C)[C@@H]1NC(=O)[C@H](Cc2ccc(O)cc2)NC(=O)[C@@H](N)CSSC[C@@H](C(=O)N2CCC[C@H]2C(N)=O)NC(=O)[C@H](CC(N)=O)NC(=O)[C@H](CCC(N)=O)NC1=O` [Metabolite B] (H-CYIQNCP-NH2; disulfide 1-6) showed an IC50 [1] greater than 10000 nM, an EC50 [2] of 110 nM and an Emax [2] of 74.1%. The EC50 [3] was greater than 10000 nM, the IC50 [4] was greater than 10000 nM and the Ki [5] was 72.6 nM. For the same compound, the “selectivity and activity compared with oxytocin” value [6] was “enhanced selectivity and activity” and the Ki [7] was 105 nM.
With `CC[C@H](C)[C@@H]1NC(=O)[C@H](Cc2ccc(O)cc2)NC(=O)[C@@H](N)CSSC[C@@H](C(=O)N2CCC[C@H]2C(=O)N[C@@H](CC(C)C)C(=O)NCC(N)=O)NC(=O)[C@H](CC(N)=O)NC(=O)[C@H](CCC(N)=O)NC1=O` [Oxytocin, reference compound] the Emax ([3]; V1aR, relative to vasopressin) was 82%.
